Assays:
[1] = Induction of IFN production in C3H/HeJ mouse splenocytes incubated for 18 hrs; type: functional; conditions: Splenocyte, read-out: MEC
[2] = biological target: T1, Toll-like receptor 7 (Homo sapiens, UniProt Q9NYK1); test: (§1) Agonist activity at TLR7 (unknown origin)
T1 sequence (Q9NYK1 whole entry): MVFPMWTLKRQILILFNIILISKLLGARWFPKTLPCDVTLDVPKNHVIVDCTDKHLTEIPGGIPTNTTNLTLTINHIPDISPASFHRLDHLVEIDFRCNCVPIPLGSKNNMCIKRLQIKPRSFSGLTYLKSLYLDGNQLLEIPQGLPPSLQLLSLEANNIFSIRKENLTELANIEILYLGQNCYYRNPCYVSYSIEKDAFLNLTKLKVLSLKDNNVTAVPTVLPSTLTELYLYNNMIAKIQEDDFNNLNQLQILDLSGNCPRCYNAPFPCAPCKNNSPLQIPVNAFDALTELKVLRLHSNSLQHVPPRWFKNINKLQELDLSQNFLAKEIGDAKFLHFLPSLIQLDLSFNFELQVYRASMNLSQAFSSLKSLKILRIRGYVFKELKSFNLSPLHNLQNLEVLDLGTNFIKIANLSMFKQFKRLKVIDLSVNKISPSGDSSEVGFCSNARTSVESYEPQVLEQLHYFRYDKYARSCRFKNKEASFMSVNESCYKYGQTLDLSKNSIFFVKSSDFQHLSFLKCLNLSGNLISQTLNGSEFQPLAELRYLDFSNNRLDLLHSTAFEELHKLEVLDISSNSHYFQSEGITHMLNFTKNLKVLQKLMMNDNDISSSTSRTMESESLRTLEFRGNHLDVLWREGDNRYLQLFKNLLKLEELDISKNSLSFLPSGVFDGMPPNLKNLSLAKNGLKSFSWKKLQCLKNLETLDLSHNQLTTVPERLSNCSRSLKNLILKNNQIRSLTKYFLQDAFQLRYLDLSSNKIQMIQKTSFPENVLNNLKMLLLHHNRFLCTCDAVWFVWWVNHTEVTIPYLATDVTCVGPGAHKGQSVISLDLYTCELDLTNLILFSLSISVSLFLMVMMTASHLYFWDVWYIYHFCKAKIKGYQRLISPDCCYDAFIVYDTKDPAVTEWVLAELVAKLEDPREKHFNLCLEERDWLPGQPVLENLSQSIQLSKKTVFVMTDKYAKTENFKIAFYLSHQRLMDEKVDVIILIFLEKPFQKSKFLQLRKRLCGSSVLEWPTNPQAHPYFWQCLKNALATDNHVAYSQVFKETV

[3] = biological target: T2, Toll-like receptor 8 (Homo sapiens, UniProt Q9NR97); test: (§2) Agonist activity at TLR8 (unknown origin)
T2 sequence (Q9NR97 whole entry): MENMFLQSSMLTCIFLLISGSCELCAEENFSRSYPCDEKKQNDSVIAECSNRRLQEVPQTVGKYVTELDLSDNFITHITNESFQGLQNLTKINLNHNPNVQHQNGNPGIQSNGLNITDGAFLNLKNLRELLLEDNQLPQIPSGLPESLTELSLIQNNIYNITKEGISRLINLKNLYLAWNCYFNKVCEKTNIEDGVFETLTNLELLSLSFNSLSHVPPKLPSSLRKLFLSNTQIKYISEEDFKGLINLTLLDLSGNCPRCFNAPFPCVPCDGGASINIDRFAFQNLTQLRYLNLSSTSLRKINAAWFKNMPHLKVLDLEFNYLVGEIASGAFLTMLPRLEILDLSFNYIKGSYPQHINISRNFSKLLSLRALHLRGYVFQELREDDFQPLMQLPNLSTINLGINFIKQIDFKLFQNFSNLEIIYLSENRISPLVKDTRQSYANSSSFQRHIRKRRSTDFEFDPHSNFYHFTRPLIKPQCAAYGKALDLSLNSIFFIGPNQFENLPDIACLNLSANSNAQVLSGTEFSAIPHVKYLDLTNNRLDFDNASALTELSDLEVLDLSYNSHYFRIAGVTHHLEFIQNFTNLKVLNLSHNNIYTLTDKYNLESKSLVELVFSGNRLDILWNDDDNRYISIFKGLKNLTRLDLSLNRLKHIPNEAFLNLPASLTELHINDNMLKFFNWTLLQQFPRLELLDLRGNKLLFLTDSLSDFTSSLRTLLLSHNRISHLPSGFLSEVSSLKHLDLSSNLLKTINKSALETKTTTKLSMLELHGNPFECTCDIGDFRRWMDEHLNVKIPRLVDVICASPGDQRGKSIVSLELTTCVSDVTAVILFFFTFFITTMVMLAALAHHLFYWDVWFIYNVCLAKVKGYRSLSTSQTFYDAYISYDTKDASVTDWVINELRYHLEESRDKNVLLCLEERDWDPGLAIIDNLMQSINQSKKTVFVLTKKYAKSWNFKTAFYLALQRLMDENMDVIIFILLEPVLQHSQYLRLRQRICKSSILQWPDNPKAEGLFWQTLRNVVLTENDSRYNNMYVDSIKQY

[4] = biological target: T1, Toll-like receptor 7; test: Agonist activity at human TLR7 transfected in HEK293 cells assessed as induction of SEAP production incubated overnight by SEAP reporter gene based assay; type: cell-based
[5] = biological target: T2, Toll-like receptor 8; test: Agonist activity at human TLR8 (27 to 287 residues) in HEK-Blue hTLR8 cells assessed as induction of NFkappaB by SEAP reporter gene based spectrophotometry assay; type: cell-based
[6] = biological target: T1, Toll-like receptor 7; test: Agonist activity at human TLR7 in HEK-Blue hTLR7 cells assessed as activation of NFkappaB by SEAP reporter gene based spectrophotometry assay; type: cell-based; conditions: hek-blue htlr7
[7] = biological target: T2, Toll-like receptor 8; test: Agonist activity at human TLR8 in HEK-Blue hTLR8 cells assessed as activation of NFkappaB by SEAP reporter gene based spectrophotometry assay; type: cell-based; conditions: hek-blue htlr8
[8] = biological target: T1, Toll-like receptor 7; test: Agonist activity at human TLR7 in HEK-Blue hTLR7 cells incubated for 24 hrs by quanti-blue reagent based analysis; type: cell-based
[9] = biological target: T2, Toll-like receptor 8; test: Agonist activity at human TLR8 in HEK-Blue hTLR8 cells incubated for 24 hrs by quanti-blue reagent based analysis; type: cell-based
[10] = biological target: T1, Toll-like receptor 7; test: Agonist activity at recombinant human TLR7 transfected in HEK293 cells assessed as induction of SEAP production incubated overnight by SEAP reporter gene based assay; type: cell-based
[11] = biological target: T2, Toll-like receptor 8; test: Agonist activity at human TLR8 transfected in HEK293 cells assessed as induction of SEAP production incubated overnight; type: cell-based
[12] = biological target: T3, Toll-like receptor 7 (Homo sapiens) (UniProt Q9NYK1); test: Agonist activity at human TLR7 transfected in HEK293 cells incubated for 6 hrs by luciferase based analysis; type: cell-based; conditions: filed as agonist
T3 sequence (whole entry): T1 sequence (Q9NYK1 whole entry)

[13] = biological target: T4, Toll-like receptor 8 (Homo sapiens) (UniProt Q9NR97); test: Agonist activity at human TLR8 transfected in HEK293 cells incubated for 6 hrs by luciferase based analysis; type: cell-based; conditions: filed as agonist
T4 sequence (whole entry): T2 sequence (Q9NR97 whole entry)

[14] = biological target: T3, Toll-like receptor 7 (Homo sapiens); test: as §1; conditions: filed as agonist
[15] = biological target: T4, Toll-like receptor 8 (Homo sapiens); test: as §2
[16] = biological target: T2, Toll-like receptor 8; test: Agonist activity at human TLR8 in HEK-Blue hTLR8 cells assessed as induction of SEAP production using nitrophenyl phosphate as substrate incubated for 20 hrs by microplate reader analysis; type: cell-based

## CCCCOc1nc(N)c2[nH]c(=O)n(Cc3ccccc3)c2n1
[1]
  minimal effective concentration: 0.001 µM

## CCC[C@H](CCO)Nc1nc(N)nnc1OCc1nccc(OC)c1OC
[2]
  EC50: 0.24 µM
[3]
  EC50: 0.56 µM

## CCOC(=O)COc1cccc(CN(CCCn2c(CCOC)nc3c(N)nc4ccccc4c32)C(=O)CN(CC)CC)c1
[4]
  EC50: 0.0546 µM

## CCCCNc1nc(N)nnc1OC(C)C
[2]
  EC50: 8.27 µM

## CCCCNc1nc(N)nnc1OCc1cccnc1
[2]
  EC50: 1.71 µM

## CCOc1cc2ccccc2nc1N
[5]
  EC50: 100 µM

## CCCCOc1nc(N)c2[nH]c(C#N)c(Cc3ccc(CN4CCCC4)nc3)c2n1
[2]
  EC50: 0.001 µM

## CCCc1nc2c(N)nc3ccc(N=[N+]=[N-])cc3c2s1
[6]
  EC50: 10.2 µM
[7]
  EC50: 2.06 µM

## CCOC(=O)COc1ccc(CN(CCCn2c(CCOC)nc3c(N)nc4ccccc4c32)C(=O)CN(C)C)cc1
[4]
  EC50: 0.172 µM

## CCCCOc1nc(N)c2[nH]c(C#N)c(Cc3cnc(CN4CCCC4)s3)c2n1
[8]
  EC50: 0.454 µM
[9]
  EC50: 293 µM

## CCCc1nc2c(NC(=O)CN=[N+]=[N-])nc3ccccc3c2s1
[6]
  EC50: 3.53 µM
[7]
  EC50: 1.2 µM

## CC(C)c1nc2c(N)nc3ccccc3c2s1
[6]
  EC50: 9.67 µM
[7]
  EC50: 10.8 µM

## CCC[C@@H](CCO)Nc1nc(N)nc(C)c1Cc1ccc(CNC2CN(C)C2)cc1OC
[10]
  EC50: 0.0191 µM
[11]
  EC50: > 10 µM

## CCC[C@@H](CCO)Nc1nc(N)nc(C)c1Cc1ccc(CNCCO)cc1OC
[10]
  EC50: 0.00977 µM
[11]
  EC50: > 10 µM

## CCCC[C@@H](CO)Nc1nc(N)nc2ccsc12
[12]
  MEC: 0.5 µM
[13]
  MEC: 0.03 µM

## CCCCSc1nc(N)c2nc(O)n(Cc3ccccc3)c2n1
[1]
  minimal effective concentration: 0.01 µM

## CCCCNc1nc(N)nnc1OCc1ccccc1
[2]
  EC50: 2.94 µM
[3]
  EC50: 1.93 µM

## COCCc1nc2c(N)nc3ccccc3c2n1CCCCN(CCN(C)C)Cc1cccc(OCC(=O)OC(C)(C)C)c1
[4]
  EC50: 0.0564 µM

## CCOC(=O)COc1ccc(CN(CCCn2c(CCOC)nc3c(N)nc4ccccc4c32)C(=O)CN2CCCC2)cc1
[4]
  EC50: 0.15 µM

## Nc1nc2ccccc2c2sc(CCCC(F)(F)F)nc12
[6]
  EC50: 2.25 µM
[7]
  EC50: 6.29 µM

## CCC[C@@H](CCO)Nc1nc(N)nc(C)c1Cc1ccc(CNC)cc1OC
[10]
  EC50: 0.00302 µM
[11]
  EC50: 6.46 µM

## COc1ccc2cc1O/C=C\CCOc1nc(N)c3nc(O)n(c3n1)C2
[14]
  MEC: 2 µM
[15]
  MEC: > 25 µM

## CCC[C@@H](CO)Nc1nc(N)nc(C)c1Cc1ccc(CN2CCN(C)CC2)cc1OC
[16]
  EC50: 0.1 µM
[10]
  EC50: < 0.00631 µM

## CCc1nc2c(N)nc3ccccc3c2s1
[6]
  EC50: 5.12 µM
[7]
  EC50: 0.81 µM

## CCCCNc1nc(N)c2nc(O)n(Cc3ccccc3)c2n1
[1]
  minimal effective concentration: 0.1 µM

## CCCCOc1nc(N)c2[nH]cc(Cc3ccc(CN4CCCC4)cc3)c2n1
[2]
  EC50: 0.1 µM

## CC[C@H](C)Cc1nc2c(N)nc3ccccc3c2s1
[6]
  EC50: 4.74 µM
[7]
  EC50: 2.51 µM

— ChEMBL document CHEMBL5244202, “Structural evolution of toll-like receptor 7/8 agonists from imidazoquinolines to imidazoles” (RSC Med Chem, 2021)
